According to PubChem BioAssay AID330 (DTP/NCI, 2004):
“And” between values parts separate entries of the source, which are not always exact repeats. Equal entries are not always repeated. Toxic doses and inconclusive results are not listed.

Tested on: P388 leukemia ip, CD2F1 mice, survival T/C
Experiment: NCI In Vivo Anticancer Drug Screen. Data for tumor model P388 Leukemia (intraperitoneal) in CD2F1 (CDF1) mice
Details: endpoint: median survival time, higher = longer survival
Outline: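 Mice carrying the transplanted tumor received test compound or vehicle. Survival was recorded in each group, and the value is the treated-group measurement divided by that of the vehicle-treated control group.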

[1] = dose: 50.0 mg/kg/injection, schedule: Q01DX005 (ip), vehicle: saline with Tween-80
[2] = dose: 100.0 mg/kg/injection, schedule: Q01DX005 (ip), vehicle: saline with Tween-80
[3] = dose: 200.0 mg/kg/injection, schedule: Q01DX005 (ip), vehicle: saline with Tween-80

**Q.** Which results are given for `CCCc1c(OC)c(OC)c2c(c1C(C)=O)OCO2`?
**A.** T/C [1]: 100 % of control; T/C [2]: 100 % of control; T/C [3]: 104 % of control

**Q.** Which results are given for `CC([NH-])C(=O)O.[Cl][Pt][Cl]` (stereo not drawn)?
**A.** T/C (dose: 12.5 mg/kg/injection, schedule: Q01DX009 (ip), vehicle: saline): 106 % of control; T/C (dose: 25.0 mg/kg/injection, schedule: Q01DX009 (ip), vehicle: distilled water + Tween-80): 154 % of control; T/C (dose: 25.0 mg/kg/injection, schedule: Q01DX009 (ip), vehicle: saline): 113 % of control; T/C (dose: 50.0 mg/kg/injection, schedule: Q01DX009 (ip), vehicle: saline): 123 % of control; T/C (dose: 100.0 mg/kg/injection, schedule: Q01DX009 (ip), vehicle: saline): 123 % of control

**Q.** How did the T/C (dose: 50.0 mg/kg/injection, schedule: Q01DX009 (ip), vehicle: suspension in saline) turn out when `COc1ccc(CSC(=S)Nc2cc(C)c(C)cc2Br)cc1` was run?
**A.** The T/C was 100 % of control.

**Q.** And the T/C (dose: 100.0 mg/kg/injection, schedule: Q01DX009 (ip), vehicle: suspension in saline)?
**A.** The T/C was 97 % of control.

**Q.** And the T/C (dose: 200.0 mg/kg/injection, schedule: Q01DX009 (ip), vehicle: suspension in saline)?
**A.** Its T/C is 93 % of control.

**Q.** `COc1cc(NC(C)=O)c(OC)c2c(Cl)ccnc12` was tested. Which T/C (dose: 100.0 mg/kg/injection, schedule: Q01DX001 (ip), vehicle: acid diluted with saline) did it give?
**A.** Its T/C is 101 % of control.

**Q.** What about the T/C (dose: 200.0 mg/kg/injection, schedule: Q01DX001 (ip), vehicle: acid diluted with saline) of the same compound?
**A.** Its T/C is 99 % of control.

**Q.** How did the T/C (dose: 50.0 mg/kg/injection, schedule: Q01DX001 (ip), vehicle: Klucel (hydroxypropylcellulose) (HPC)) turn out when `CCS(CC)=NC(=O)C(Cl)Cl` was run?
**A.** The T/C was 100 % of control and 104 % of control and 97 % of control.

**Q.** What about the T/C (dose: 100.0 mg/kg/injection, schedule: Q01DX001 (ip), vehicle: Klucel (hydroxypropylcellulose) (HPC)) of the same compound?
**A.** Its T/C is 99 % of control and 100 % of control and 94 % of control.

**Q.** And the T/C (dose: 200.0 mg/kg/injection, schedule: Q01DX001 (ip), vehicle: Klucel (hydroxypropylcellulose) (HPC))?
**A.** Its T/C is 99 % of control and 100 % of control and 123 % of control.

**Q.** And the T/C (dose: 400.0 mg/kg/injection, schedule: Q01DX001 (ip), vehicle: Klucel (hydroxypropylcellulose) (HPC))?
**A.** The T/C was 111 % of control and 95 % of control.

**Q.** `COC(=O)NN(C(=O)OC)C12CCCC1N(C(=O)OC)N(C(=O)OC)c1c2ccc2ccccc12` (stereo not drawn) was tested. Which T/C (dose: 60.0 mg/kg/injection, schedule: Q01DX005 (ip), vehicle: Klucel (hydroxypropylcellulose) (HPC)) did it give?
**A.** The T/C was 103 % of control.

**Q.** What about the T/C (dose: 120.0 mg/kg/injection, schedule: Q01DX005 (ip), vehicle: Klucel (hydroxypropylcellulose) (HPC)) of the same compound?
**A.** The T/C was 103 % of control.

**Q.** What about the T/C (dose: 240.0 mg/kg/injection, schedule: Q01DX005 (ip), vehicle: Klucel (hydroxypropylcellulose) (HPC)) of the same compound?
**A.** Its T/C is 96 % of control.

**Q.** For `O=C1c2ccccc2C(=O)C1C(=Nc1ccccc1Br)c1ccccc1`, which T/C [1] is on record?
**A.** Its T/C is 99 % of control.

**Q.** And the T/C [2]?
**A.** Its T/C is 103 % of control.

**Q.** What about the T/C [3] of the same compound?
**A.** Its T/C is 103 % of control.

**Q.** Which results are given for `O=C1CN(C2CC2N2CC(=O)OC(=O)C2)CC(=O)O1` (stereo not drawn)?
**A.** T/C (dose: 100.0 mg/kg/injection, schedule: Q04DX003 (ip), vehicle: saline with Tween-80): 97 % of control; T/C (dose: 400.0 mg/kg/injection, schedule: Q04DX003 (ip), vehicle: saline with Tween-80): 89 % of control

**Q.** How did the T/C (dose: 60.0 mg/kg/injection, schedule: Q01DX005 (ip), vehicle: saline) turn out when `CC(C)=CCCc1cc(-c2cc(CCC=C(C)C)nc(N)n2)nc(N)n1` was run?
**A.** Its T/C is 99 % of control.

**Q.** And the T/C (dose: 120.0 mg/kg/injection, schedule: Q01DX005 (ip), vehicle: saline)?
**A.** Its T/C is 103 % of control.

**Q.** With `Clc1[nH]nc2ccccc12` as the compound, how does the T/C (dose: 6.25 mg/kg/injection, schedule: Q01DX009 (ip), vehicle: saline with Tween-80) read?
**A.** The T/C was 95 % of control.

**Q.** And the T/C (dose: 12.5 mg/kg/injection, schedule: Q01DX009 (ip), vehicle: saline with Tween-80)?
**A.** Its T/C is 100 % of control.

**Q.** And the T/C (dose: 12.5 mg/kg/injection, schedule: Q04DX003 (ip), vehicle: saline with Tween-80)?
**A.** The T/C was 100 % of control.

**Q.** And the T/C (dose: 25.0 mg/kg/injection, schedule: Q01DX009 (ip), vehicle: saline with Tween-80)?
**A.** The T/C was 86 % of control.

**Q.** And the T/C (dose: 25.0 mg/kg/injection, schedule: Q04DX003 (ip), vehicle: saline with Tween-80)?
**A.** The T/C was 100 % of control.

**Q.** And the T/C (dose: 50.0 mg/kg/injection, schedule: Q04DX003 (ip), vehicle: saline with Tween-80)?
**A.** The T/C was 100 % of control.

**Q.** `CCN(CC)Cc1cc(C)c(O)c(N=Nc2cccc3ccccc23)c1C` was tested. Which T/C (dose: 100.0 mg/kg/injection, schedule: Q04DX002 (ip), vehicle: saline with Tween-80) did it give?
**A.** Its T/C is 86 % of control.

**Q.** What about the T/C (dose: 200.0 mg/kg/injection, schedule: Q04DX002 (ip), vehicle: saline with Tween-80) of the same compound?
**A.** The T/C was 91 % of control.

**Q.** And the T/C (dose: 400.0 mg/kg/injection, schedule: Q04DX002 (ip), vehicle: saline with Tween-80)?
**A.** Its T/C is 109 % of control.

**Q.** With `c1ccc(CSc2nnc(NC3CCCCC3)s2)cc1` as the compound, how does the T/C (dose: 50.0 mg/kg/injection, schedule: Q01DX009 (ip), vehicle: saline with Tween-80) read?
**A.** The T/C was 96 % of control.

**Q.** What about the T/C (dose: 100.0 mg/kg/injection, schedule: Q01DX009 (ip), vehicle: saline with Tween-80) of the same compound?
**A.** The T/C was 96 % of control.

**Q.** What about the T/C (dose: 200.0 mg/kg/injection, schedule: Q01DX009 (ip), vehicle: saline with Tween-80) of the same compound?
**A.** Its T/C is 100 % of control.

**Q.** What does the source list for `CCCCCCCCCCC/C=C/[N+](=O)[O-]`?
**A.** T/C (dose: 5.0 mg/kg/injection, schedule: Q01DX005 (ip), vehicle: Klucel (hydroxypropylcellulose) (HPC)): 101 % of control; T/C (dose: 10.0 mg/kg/injection, schedule: Q01DX005 (ip), vehicle: Klucel (hydroxypropylcellulose) (HPC)): 99 % of control; T/C (dose: 20.0 mg/kg/injection, schedule: Q01DX005 (ip), vehicle: Klucel (hydroxypropylcellulose) (HPC)): 104 % of control; T/C (dose: 40.0 mg/kg/injection, schedule: Q01DX005 (ip), vehicle: Klucel (hydroxypropylcellulose) (HPC)): 99 % of control
